In brackets after ≈: the same amount, converted by molar mass. Several values for one entry are separate records, joined by “and”; a condition that tells them apart may be missing. Identical values can stand only once.
Columns and labels:
[1] = DNDI: Cytotoxicity against L929 mouse fibroblasts, CYTO-SP, 24 hour; type: toxicity, cell-based; conditions: mouse, L929 mouse fibroblasts
Trypanosoma brucei [2] = test: DNDI: Inhibition of Human African Trypanosomiasis, Cross 22, in vitro; type: functional, organism-based
in vitro [3] = conditions: human, liver microsomes, CLint in vitro
Description: DNDI: in vitro intrinsic clearance in human liver microsomes at a concentration of 1uM

[4] = mouse, microsomes, 1 µM
Description: (§2) DNDI: in vitro intrinsic clearance in mouse liver microsomes at a concentration of 1uM

in vitro [5] = conditions: human, liver microsomes, t (1 / 2)
Description: DNDI: half life in human liver microsomes at a concentration of 1uM

[6] = mouse, microsomes, 1 µM; remark: listed apart in the source
Description: (§3) DNDI: half life in mouse liver microsomes at a concentration of 1uM

[7] = DNDI: Solubility in phosphate buffered saline at pH7.4 measured by nephelometry at room temperature (NEPH-RT); type: physicochemical; conditions: pH 7.4
Trypanosoma brucei [8] = test: DNDI: Inhibition of Human African Trypanosomiasis, SBRI 427, in vitro; type: functional, organism-based
[9] = DNDI: Cytotoxicity against L929 mouse fibroblasts, 72 hour.; type: toxicity, cell-based; conditions: mouse, L929 mouse fibroblasts
[10] = DNDI: Lipophilicity measured in Chromatographic hydrophobicity index (CHI) assay, pH 7.4; type: physicochemical; conditions: buffer
in vitro [11] = conditions: mouse
Description: as §2

[12] = DNDI: Solubility in phosphate buffered saline at pH7.4 measured by optical density (turbidimetry) at room temperature (OD-RT); type: physicochemical; conditions: pH 7.4
Plasmodium falciparum = test: DNDI: Inhibition of the malaria parasite Plasmodium falciparum, in vitro; type: functional, organism-based; conditions: K1
[13] = DNDI: half life in human liver microsomes at a concentration of 10uM; type: ADME, Microsome
Leishmania donovani = test: DNDI: Inhibition of formation of Leishmania donovani (strain MHOM/ET/67/L82) axenic amastigotes, in vitro.; type: functional, organism-based
[14] = DNDI: Cytotoxicity against L-6 rat myoblasts from skeletal muscle cells; type: toxicity, cell-based, L6; conditions: L-6 rat skeletal muscle myoblasts
[15] = DNDI: in vitro intrinsic clearance in mouse liver microsomes at a concentration of 10uM; type: ADME, Microsome; conditions: read-out: CLint in vitro
[16] = DNDI: half life in mouse liver microsomes at a concentration of 10uM; type: ADME, Microsome
[17] = DNDI: in vitro intrinsic clearance in human liver microsomes at a concentration of 10uM; type: ADME, Microsome
in vitro [18] = conditions: mouse, t (1 / 2)
Description: as §3

[19] = tested on: Trypanosoma brucei rhodesiense; test: DNDI: Inhibition of Human African Trypanosomiasis (HAT), STIB 900, in vitro; type: functional, organism-based
Trypanosoma cruzi = test: DNDI: Inhibition of Chagas Disease parasite Trypanosoma cruzi (Tulahuen LacZ, Clone C4), in vitro.; type: functional, organism-based
Trypanosoma brucei [20] = test: (§1) DNDI: Mean survival time in days (MSD) of mice after intraperitoneal injection of Human African Trypanosomiasis (HAT), EATRO 110, in vivo at 20 mg/kg/day for 4 days.; type: functional, Mus musculus
Trypanosoma brucei [21] = test: as §1; type: functional, Mus musculus; remark: listed apart in the source
[22] = DNDI: % of compound remaining in mouse S9 microsomes at a concentration of 1uM after 60 mins; type: ADME, subcellular, Liver, S9 fraction
[23] = DNDI: % of compound remaining in rat S9 microsomes at a concentration of 1uM; type: ADME, subcellular, Liver, S9 fraction
Trypanosoma brucei [24] = test: DNDI: Inhibition of Human African Trypanosomiasis, EATRO 110, in vitro; type: functional, organism-based
[25] = Trypanosoma brucei, SBRI 427, read-out: IC50

SMILES: CCCCOc1ccc(-c2nc(CNC3CCCCCC3)co2)cc1
- IC50 at 24 h [1]: 11.7 µg/mL (≈ 34.2 µM)
- IC50 (Trypanosoma brucei [2]): 0.4 µg/mL (≈ 1.17 µM)
- microsomal CLint at 1 µM (in vitro [3]): 38 µL/min/mg
- CLint in vitro [4]: 32 µL/min/mg and 11 µL/min/mg
- half-life at 1 µM (in vitro [5]): 0.383 h
- t (1 / 2) [6]: 26 min and 78 min
- solubility kinetic [7]: < 1 µM
- IC50 (Trypanosoma brucei [8]): 0.3 µg/mL and 0.39 µg/mL
- IC50 (Trypanosoma brucei [8]; [25]): 0.38 µg/mL (≈ 1.11 µM)
- IC50 at 72 h [9]: < 3.13 µg/mL
- chromatographic logD [10]: 5.34

SMILES: CCCCCC(C)NCc1coc(-c2ccc(OCCCC)cc2)n1 (centres undefined)
- IC50 at 24 h [1]: > 50 µg/mL
- microsomal CLint at 1 µM (in vitro [11]; liver microsomes): 12 µL/min/mg
- solubility kinetic [12]: 1.6 µM (≈ 0.551 µg/mL)
- IC50 (Plasmodium falciparum): 0.825 µg/mL (≈ 2.39 µM)
- IC50 (Trypanosoma brucei [2]): 0.36 µg/mL (≈ 1.04 µM)
- CLint in vitro [4]: 10 µL/min/mg
- half-life at 10 µM [13]: 1.73 h
- IC50 (Leishmania donovani): 4.92 µg/mL (≈ 14.3 µM)
- t (1 / 2) [6]: 84 min
- IC50 [14]: 2.66 µg/mL (≈ 7.72 µM)
- microsomal CLint at 10 µM [15]: 15 µL/min/mg
- IC50 (Trypanosoma brucei [8]): 0.29 µg/mL and 0.22 µg/mL
- IC50 (Trypanosoma brucei [8]; [25]): 0.38 µg/mL (≈ 1.1 µM)
- half-life at 10 µM [16]: 3.12 h
- IC50 at 72 h [9]: 1.54 µg/mL (≈ 4.47 µM)
- CLint in vitro [17]: 28 µL/min/mg
- chromatographic logD [10]: 5.01
- half-life at 1 µM (in vitro [18]; liver microsomes): 1.17 h
- IC50 [19]: 0.278 µg/mL (≈ 0.807 µM)
- IC50 (Trypanosoma cruzi): 1.5 µg/mL (≈ 4.35 µM)

SMILES: COc1ccc(/C(=N/O)Nc2cccc(C(F)(F)F)c2)cc1
- MSD (Trypanosoma brucei [20]): 5 days
- CLint in vitro [4]: 319 µL/min/mg
- MSD (Trypanosoma brucei [21]): 5 days
- solubility kinetic [7]: 25 µM (≈ 7.76 µg/mL)
- IC50 at 72 h [9]: 8.11 µg/mL (≈ 26.1 µM)
- remaining at 1 h, 1 µM [22]: 0%
- remaining at 1 µM [23]: 0%
- chromatographic logD [10]: 3.67
- half-life at 1 µM (in vitro [18]; liver microsomes): 0.05 h

SMILES: COc1ccccc1CNC(CCc1ccccc1)c1nc(Cc2ccccc2)c(N2CCCCC2)o1 (centres undefined)
- microsomal CLint at 1 µM (in vitro [11]; liver microsomes): 471 µL/min/mg
- CLint in vitro [4]: 487 µL/min/mg
- solubility kinetic [7]: 2 µM (≈ 0.991 µg/mL)
- IC50 (Trypanosoma brucei [8]; [25]): 4.41 µg/mL (≈ 8.9 µM)
- IC50 at 72 h [9]: 8.24 µg/mL (≈ 16.6 µM)
- half-life at 1 µM (in vitro [18]; liver microsomes): 0.0333 h

SMILES: CCCCCC(C)NCc1coc(-c2ccc(CCCC)cc2)n1 (centres undefined)
- IC50 at 24 h [1]: > 50 µg/mL
- microsomal CLint at 1 µM (in vitro [11]; microsomes): 12 µL/min/mg
- solubility kinetic [12]: 1.6 µM (≈ 0.526 µg/mL)
- MSD (Trypanosoma brucei [20]): 3.4 days
- IC50 (Plasmodium falciparum): 0.647 µg/mL (≈ 1.97 µM)
- IC50 (Trypanosoma brucei [2]): 0.3 µg/mL (≈ 0.913 µM)
- CLint in vitro [4]: 11 µL/min/mg
- half-life at 10 µM [13]: 1.62 h
- IC50 (Leishmania donovani): 5.25 µg/mL (≈ 16 µM)
- t (1 / 2) [6]: 81 min
- IC50 [14]: 2.31 µg/mL (≈ 7.03 µM)
- microsomal CLint at 10 µM [15]: 16 µL/min/mg
- half-life at 10 µM [16]: 2.98 h
- IC50 at 72 h [9]: 1.48 µg/mL (≈ 4.51 µM)
- CLint in vitro [17]: 30 µL/min/mg
- chromatographic logD [10]: 5.51
- half-life at 1 µM (in vitro [18]; microsomes): 1.22 h
- IC50 [19]: 0.186 µg/mL (≈ 0.566 µM)
- IC50 (Trypanosoma cruzi): 2.8 µg/mL (≈ 8.52 µM)

SMILES: COc1cc(C)ccc1Oc1ncccc1/C(=N/O)NC1CCCCC1
- IC50 (Trypanosoma brucei [24]): 0.48 µg/mL (≈ 1.35 µM)
- IC50 at 24 h [1]: > 50 µg/mL
- solubility kinetic [12]: 25 µM (≈ 8.89 µg/mL)
- MSD (Trypanosoma brucei [20]): 5.5 days
- IC50 (Plasmodium falciparum): > 5 µg/mL
- CLint in vitro [4]: 76 µL/min/mg
- half-life at 10 µM [13]: 2.57 h
- IC50 (Leishmania donovani): > 90 µg/mL
- solubility kinetic [7]: 25 µM (≈ 8.89 µg/mL)
- IC50 [14]: 76.2 µg/mL (≈ 214 µM)
- microsomal CLint at 10 µM [15]: 76 µL/min/mg
- IC50 (Trypanosoma brucei [8]): 0.15 µg/mL (≈ 0.422 µM)
- IC50 (Trypanosoma brucei [8]; [25]): 0.25 µg/mL (≈ 0.703 µM)
- half-life at 10 µM [16]: 0.633 h
- IC50 at 72 h [9]: > 10 µg/mL
- remaining at 1 h, 1 µM [22]: 18.3%
- CLint in vitro [17]: 19 µL/min/mg
- remaining at 1 µM [23]: 0.111%
- chromatographic logD [10]: 4
- logD [10]: 4.04
- half-life at 1 µM (in vitro [18]; liver microsomes): 0.183 h
- IC50 [19]: 57.9 µg/mL (≈ 163 µM)
- IC50 (Trypanosoma cruzi): > 30 µg/mL

SMILES: CCCCOc1ccc(-c2nc(CNC3CC(C)CC(C)(C)C3)co2)cc1 (centres undefined)
- IC50 at 24 h [1]: 20.9 µg/mL (≈ 56.4 µM)
- microsomal CLint at 1 µM (in vitro [11]; liver microsomes): 6 µL/min/mg
- IC50 (Trypanosoma brucei [2]): 0.61 µg/mL (≈ 1.65 µM)
- CLint in vitro [4]: 8 µL/min/mg
- t (1 / 2) [6]: 113 min
- IC50 (Trypanosoma brucei [8]): 0.39 µg/mL and 0.47 µg/mL and 1.12 µg/mL
- IC50 at 72 h [9]: < 3.13 µg/mL
- half-life at 1 µM (in vitro [18]; liver microsomes): 2.33 h

SMILES: CC1(C)[C@H]2CC[C@@H](CNCc3coc(-c4ccc(-c5ccccc5)cc4)n3)[C@@H]1C2
- IC50 at 24 h [1]: 17.6 µg/mL (≈ 45.6 µM)
- IC50 (Trypanosoma brucei [2]): 0.64 µg/mL (≈ 1.66 µM)
- CLint in vitro [4]: 25 µL/min/mg and 11 µL/min/mg
- t (1 / 2) [6]: 80 min and 34 min
- IC50 (Trypanosoma brucei [8]): 0.28 µg/mL and 0.72 µg/mL and 0.58 µg/mL
- IC50 at 72 h [9]: < 3.13 µg/mL

SMILES: c1ccc(-c2ccc(-c3nc(CNC4CCCCCC4)co3)cc2)cc1
- IC50 at 24 h [1]: 25.3 µg/mL (≈ 73.1 µM)
- IC50 (Trypanosoma brucei [2]): 0.54 µg/mL (≈ 1.56 µM)
- CLint in vitro [4]: 4 µL/min/mg and 10 µL/min/mg
- t (1 / 2) [6]: 88 min and 237 min
- IC50 (Trypanosoma brucei [8]): 0.27 µg/mL and 0.56 µg/mL and 0.41 µg/mL
- IC50 at 72 h [9]: < 3.13 µg/mL

SMILES: O/N=C(\NC1CCCCC1)c1ccccc1-c1ccccc1
- IC50 at 24 h [1]: 50 µg/mL (≈ 170 µM)
- solubility kinetic [12]: 6.3 µM (≈ 1.85 µg/mL)
- IC50 (Plasmodium falciparum): 2.78 µg/mL (≈ 9.44 µM)
- CLint in vitro [4]: 119 µL/min/mg
- half-life at 10 µM [13]: 9.28 h
- IC50 (Leishmania donovani): 27.6 µg/mL (≈ 93.7 µM)
- IC50 [14]: 41.7 µg/mL (≈ 142 µM)
- microsomal CLint at 10 µM [15]: 51 µL/min/mg
- IC50 (Trypanosoma brucei [8]; [25]): 0.62 µg/mL (≈ 2.11 µM)
- half-life at 10 µM [16]: 0.95 h
- IC50 at 72 h [9]: > 10 µg/mL
- remaining at 1 h, 1 µM [22]: 6.85%
- CLint in vitro [17]: 5 µL/min/mg
- remaining at 1 µM [23]: 0%
- chromatographic logD [10]: 4.53
- half-life at 1 µM (in vitro [18]; liver microsomes): 0.117 h
- IC50 [19]: 50.4 µg/mL (≈ 171 µM)
- IC50 (Trypanosoma cruzi): 7.25 µg/mL (≈ 24.6 µM)

SMILES: COc1ccccc1/C(=N/O)NC1CCCCC1
- IC50 at 24 h [1]: > 50 µg/mL
- solubility kinetic [12]: > 200 µM
- IC50 (Plasmodium falciparum): 3.7 µg/mL (≈ 14.9 µM)
- CLint in vitro [4]: 40 µL/min/mg
- half-life at 10 µM [13]: 2.13 h
- IC50 (Leishmania donovani): 17 µg/mL (≈ 68.5 µM)
- IC50 [14]: 62.3 µg/mL (≈ 251 µM)
- microsomal CLint at 10 µM [15]: 91 µL/min/mg
- IC50 (Trypanosoma brucei [8]; [25]): 0.52 µg/mL (≈ 2.09 µM)
- half-life at 10 µM [16]: 0.533 h
- IC50 at 72 h [9]: > 10 µg/mL
- remaining at 1 h, 1 µM [22]: 1.05%
- CLint in vitro [17]: 23 µL/min/mg
- remaining at 1 µM [23]: 0%
- chromatographic logD [10]: 3.6
- half-life at 1 µM (in vitro [18]; liver microsomes): 0.35 h
- IC50 [19]: 7.46 µg/mL (≈ 30 µM)
- IC50 (Trypanosoma cruzi): > 30 µg/mL

From ChEMBL document CHEMBL1857833, “Screening and optimization of specific chemical series against human African Trypanosomiasis (HAT)”
